Assay results published in the supplement of paper PMC10307832.

Legend:
Test in all cases: relative viability (nuclei count vs DMSO), 5 days (fraction); higher = more cells survive
AZ23 = compound: CC(C)Oc1cc(Nc2nc(N[C@@H](C)c3ccc(F)cn3)ncc2Cl)n[nH]1 [AZ23]
Summary of the method: (§1)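 For viability, nuclei in each treated well were divided by nuclei in vehicle wells and the median across plates was taken. Lung cancer cell lines in 1536-well plates were pinned with five library-drug doses (not always all listed) spaced by √10, cultured 5 days without medium change, and imaged at 4× after Hoechst staining, with plates passing only at control CV below 25% and at least one doubling.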

HG-5-88-01 = compound: CC(C)S(=O)(=O)C1=CC=CC=C1NC2=NC(=NC(=C2Cl)N)NC3=C(C=C(C=C3)N4CCC(CC4)C(=O)N)OC [HG-5-88-01]
Summary of the method: as §1

Embelin = compound: CCCCCCCCCCCC1=C(O)C(=O)C=C(O)C1=O [Embelin]
Summary of the method: as §1

[1] = compound: C[C@@H]1CN(CC(=O)Nc2ccc3c(c2)Cc2cccc(-c4cc(=O)cc(N5CCOCC5)o4)c2S3)C[C@H](C)O1
Summary of the method: as §1

Vatalanib = compound: Clc1ccc(Nc2nnc(Cc3ccncc3)c3ccccc23)cc1 [Vatalanib]
Summary of the method: as §1

Cell Line | relative viability (AZ23; 0.01 µM) | relative viability (AZ23; 0.03162 µM) | relative viability (AZ23; 0.3162 µM) | relative viability (HG-5-88-01; 0.04 µM) | relative viability (HG-5-88-01; 0.1265 µM) | relative viability (HG-5-88-01; 0.4 µM) | relative viability (HG-5-88-01; 1.265 µM) | relative viability (HG-5-88-01; 4 µM) | relative viability (Embelin; 0.08 µM) | relative viability (Embelin; 0.8 µM) | relative viability (Embelin; 2.53 µM) | relative viability (Embelin; 8 µM) | relative viability ([1]; 0.04 µM) | relative viability ([1]; 0.1265 µM) | relative viability ([1]; 0.4 µM) | relative viability ([1]; 4 µM) | relative viability (Vatalanib; 0.04 µM) | relative viability (Vatalanib; 0.1265 µM) | relative viability (Vatalanib; 0.4 µM) | relative viability (Vatalanib; 1.265 µM) | relative viability (Vatalanib; 4 µM)
NCI-H1993 | 0.926 | 0.834 | 0.991 | 0.879 | 0.998 | 0.9 | 0.611 | 0.861 | 1.05 | 0.888 | 1.05 | 0.843 | 1.07 | 0.96 | 0.761 | 0.938 | 0.818 | 0.871 | 0.923 | 0.748 | 0.815
NCI-H2228 | 1.16 | 1.1 | 0.868 | 0.725 | 0.588 | 0.371 | 0.3 | 0.345 | 1 | 0.946 | 1.08 | 1.02 | 0.941 | 0.937 | 0.909 | 0.625 | 0.988 | 0.902 | 1.15 | 1.09 | 0.975
EMC-BAC-2 | 0.886 | 1.08 | 0.986 | 0.977 | 1.04 | 0.85 | 0.93 | 0.887 | 1.01 | 1.11 | 0.83 | 0.83 | 0.95 | 0.985 | 0.957 | 1.02 | 0.966 | 0.974 | 0.974 |  | 0.949
EKVX | 0.932 | 1.11 | 0.976 | 0.923 | 1.02 | 0.875 |  | 0.934 | 0.966 | 1.02 | 0.964 | 1.03 | 0.975 | 0.971 | 0.898 | 0.882 | 0.934 | 0.849 | 0.975 | 0.818 | 0.871
NCI-H2170 | 1.07 | 0.977 | 1.2 | 0.977 | 1.02 | 0.899 | 0.706 | 1.01 | 0.981 | 1.01 | 1.09 | 0.919 | 0.989 | 0.997 | 0.985 | 0.888 | 1.03 | 0.979 | 0.997 | 0.987 | 0.944
NCI-H2085 | 1.11 | 1.05 | 0.961 | 1.05 | 1.07 | 1.02 | 0.972 | 1.01 | 0.985 | 1.05 | 1.07 | 0.992 | 0.957 | 1.02 | 0.977 | 0.834 | 0.997 | 0.953 | 0.975 | 0.92 | 0.931
LCLC-97TM1 | 0.998 | 0.915 | 0.873 | 0.98 | 0.922 | 0.807 | 0.838 | 0.291 | 0.906 | 1.15 | 1.17 | 0.971 |  | 0.965 | 0.853 | 1.04 | 0.875 | 0.84 | 0.977 | 0.838 | 1.03
HARA | 0.821 | 1.1 | 1.07 | 1.04 | 0.979 | 0.923 | 0.598 | 0.805 | 0.963 | 1.12 | 1.05 | 0.929 | 0.931 | 0.908 | 0.873 | 0.911 | 0.88 | 0.99 | 1.12 | 0.878 | 1.03
